We go through 15 compounds from patent US7250429B2, “Aminomethyl-substituted thiazolobenzimidazole compounds” (Astellas Pharma Inc., priority 2002, dated 2007).

One data set addresses T1, mGluR 1 (Rattus norvegicus, UniProt P23385).
T1 construct: Each rat (Wistar, male, 9 to 12 weeks of age) was decapitated to excise the cerebellum; from tissue; host or cells: rat (Wistar) cerebellum, P2 membrane fraction
In words: mGluR 1 binding test with tritium-labeled ligand on rat cerebellum P2 membrane fraction. Conditions: about 20 nM [3H]-6-amino-N-cyclohexyl-N,3-dimethylthiazolo[3,2-a]benzimidazole-2-carboxamide. As for the experimental part: (Test Methods) 1. The mGluR 1 Binding Activity
Effect of the compounds of the invention upon mGluR 1 was verified in accordance with the method described in the Patent Reference 3.
(Preparation of Rat Cerebellum P2 Membrane Fraction)
Each rat (Wistar, male, 9 to 12 weeks of age) was decapitated to excise the cerebellum. After weight measurement, this was homogenized in 7 to 10 volumes of 0.32 M sucrose solution. After 15 minutes of centrifugation at 900×g, the supernatant was preserved in a container (in ice). The precipitate was again homogenized in 0.32 M sucrose solution of the same volume of the first time and centrifuged at 900×g for 15 minutes. The supernatant obtained this time was combined with the previously obtained supernatant and centrifuged at 15,000×g for 20 minutes. The precipitate was homogenized in 5 mM Tris-HCl, pH 7.4, and centrifuged at 15,000×g for 15 minutes. This step was repeated again. The precipitate was homogenized in 50 mM Tris-HCl, pH 7.4, and centrifuged at 15,000×g for 15 minutes. The precipitate was homogenized in an appropriate amount of 50 mM Tris-HCl, pH 7.4, subdivided into small portions and then preserved at −80° C.
As the assay buffer, 50 mM Tris-HCl, 2.5 mM CaCl2, pH 7.4, was used. [^3H]-(6-Amino-N-cyclohexyl-N,3-dimethylthiazolo[3,2-a]benzimidazole-2-carboxamide) (specific activity; 81 Ci/mmol; Amersham), a test compound and about 0.1 mg of the rat cerebellum P2 membrane fraction were suspended to a total volume of 100 μl in a 96 well microplate and then incubated at room temperature (about 25° C.) for 45 minutes. Completion of the incubation was carried out by a filtration method using Whatman GF/B filter. Quantity of the radioactivity was measured using a liquid scintillation counter. About 20 nM of [^3H]-6-amino-N-cyclohexyl-N,3-dimethylthiazolo[3,2-a]benzimidazole-2-carboxamide was used in the competitive test, and the specific binding was defined as a portion of the total binding, which was replaced by 10 μM of 6-{[(2-methoxyethyl)amino]methyl}-N-neopentylthiazolo[3,2-a]benzimidazole-2-carboxamide (Patent Reference 3, the compound described in Example 75). Evaluation of the test compound was carried out by calculating the ratio of binding inhibition upon the specific binding.
Determination of protein was carried out using BIO-RAD DC protein assay (BIO-RAD). Bovine serum albumin was used as the standard substance.

A further data set relates to STZ-loaded mice. As to the kind of experiment: Streptozotocin (STZ)-induced diabetes model, tail pinch test. The data set is classed as in vivo, ICR mice. Conditions: at 10 mg/kg. As for the experimental part:
• Thomsen C., Mulvihill E. R., Haldeman B., Pickering D. S., Hampson D. R. and Suzdak P. D., A pharmacological characterization of the mGluR 1 alpha subtype of the metabotropic glutamate receptor expressed in a cloned baby hamster kidney cell line., Brain Res., Aug. 13, 1993, 619(1-2), 22-8 2. Inhibitory Effect Upon Neuropathic Pain 1) Streptozotocin (to be Referred to as STZ Hereinafter)—Induced Diabetes Model
The test was carried out by modifying a part of a report (Pharmacol. Biochem. Behav., 39, 541-544, 1991). At a dose of 200 mg/kg, STZ was intraperitoneally administered to each of ICR mice of 4 weeks of age. A preliminary test of a tail pinch test was carried out in the afternoon of the day 2 weeks after the administration, and only animals showing a reaction latency of 3 seconds or less were submitted to the next day's test. Each compound was loaded by 10 mg/kg of oral administration, and the tail pinch test was carried out after 30 minutes of the administration to calculate a difference from the value of latency measured in the preliminary test.
In this connection, normal mice unloaded with STZ show a reaction latency of 6 to 7 seconds in average by this test. STZ-loaded mice having a reaction latency of 3 seconds or less in which distinct reduction in the pain threshold was observed were used in the test of this time. […]

Data set [1] deals with Salmonella typhimurium TA 98 and TA 100. As to the kind of experiment: Reverse mutation test using a bacterium (genetic toxicity). The data set is classed as cell-based. The conditions noted are these: pre-incubation method, presence and absence of metabolic activation system (S9Mix). Here is the method: Gene mutation inducing ability of the compounds of the invention was verified by a reverse mutation test which uses a bacterium.
The test was carried out in accordance with the genetic toxicity test guideline of drugs (Iyakushin No. 1604, Nov. 1, 1999) by a pre-incubation method in the presence and absence of a metabolic activation system. However, Salmonella typhimurium TA 98 and TA 100 alone were used as the test strains.
(Reverse Mutation Test Using a Bacterium)
A 0.5 ml portion of 0.1 M sodium phosphate buffer (pH 7.4), 0.1 ml of an overnight-cultured test strain suspension and 0.1 ml of a solution of a substance to be tested were put into a test tube and shaken (60 reciprocation/min) at 37° C. for 20 minutes, and then 2 ml of soft agar kept at about 45° C. was added thereto and the mixture was spread on a minimal glucose agar plate medium (plate) and cultured at 37° C. for about 48 hours. In the case of the metabolic activation test, the same procedure was carried out by adding the same volume of S9Mix instead of the 0.1 M sodium phosphate buffer. […]
The number of colonies formed on the plate after 48 hours of culturing was counted. […]

Data set [2] relates to L5/L6 spinal nerves-ligated rat. As to the kind of experiment: L5/L6 spinal nerves-ligated rat, von Frey hair (VFH) test. The data set is classed as in vivo, SD rats. Conditions: 30 mg/kg oral administration; VFH test 30 minutes after administration. Here is the method: 2) L5/L6 Spinal Nerves-Ligated Rat
The test was carried out by modifying a part of a report (PAIN, 50, 355-363, 1992). Using SD rats, left side hip nerves (L5 and L6) were ligated with a silk thread under pentobarbital anesthesia. The following test was carried out during a period of from on the 7th day to the 14th day after the operation.
Each compound was orally administered, and the von Frey hair (VFH) test was carried out 30 minutes thereafter to calculate the pain threshold value against mechanical nocuous stimulus. The measurement was carried out on the left and right hind legs.
The significant difference test was carried out using the Dunnett method on respective left and right legs between the control group and compound-administered group.

Where a name gives a salt, the structure may show the parent alone.

One may read the IC50 as the concentration that inhibits the measured activity by half. Low readings indicate greater potency in that assay, high ones weaker potency in that assay.

T1 sequence (P23385 19-1199): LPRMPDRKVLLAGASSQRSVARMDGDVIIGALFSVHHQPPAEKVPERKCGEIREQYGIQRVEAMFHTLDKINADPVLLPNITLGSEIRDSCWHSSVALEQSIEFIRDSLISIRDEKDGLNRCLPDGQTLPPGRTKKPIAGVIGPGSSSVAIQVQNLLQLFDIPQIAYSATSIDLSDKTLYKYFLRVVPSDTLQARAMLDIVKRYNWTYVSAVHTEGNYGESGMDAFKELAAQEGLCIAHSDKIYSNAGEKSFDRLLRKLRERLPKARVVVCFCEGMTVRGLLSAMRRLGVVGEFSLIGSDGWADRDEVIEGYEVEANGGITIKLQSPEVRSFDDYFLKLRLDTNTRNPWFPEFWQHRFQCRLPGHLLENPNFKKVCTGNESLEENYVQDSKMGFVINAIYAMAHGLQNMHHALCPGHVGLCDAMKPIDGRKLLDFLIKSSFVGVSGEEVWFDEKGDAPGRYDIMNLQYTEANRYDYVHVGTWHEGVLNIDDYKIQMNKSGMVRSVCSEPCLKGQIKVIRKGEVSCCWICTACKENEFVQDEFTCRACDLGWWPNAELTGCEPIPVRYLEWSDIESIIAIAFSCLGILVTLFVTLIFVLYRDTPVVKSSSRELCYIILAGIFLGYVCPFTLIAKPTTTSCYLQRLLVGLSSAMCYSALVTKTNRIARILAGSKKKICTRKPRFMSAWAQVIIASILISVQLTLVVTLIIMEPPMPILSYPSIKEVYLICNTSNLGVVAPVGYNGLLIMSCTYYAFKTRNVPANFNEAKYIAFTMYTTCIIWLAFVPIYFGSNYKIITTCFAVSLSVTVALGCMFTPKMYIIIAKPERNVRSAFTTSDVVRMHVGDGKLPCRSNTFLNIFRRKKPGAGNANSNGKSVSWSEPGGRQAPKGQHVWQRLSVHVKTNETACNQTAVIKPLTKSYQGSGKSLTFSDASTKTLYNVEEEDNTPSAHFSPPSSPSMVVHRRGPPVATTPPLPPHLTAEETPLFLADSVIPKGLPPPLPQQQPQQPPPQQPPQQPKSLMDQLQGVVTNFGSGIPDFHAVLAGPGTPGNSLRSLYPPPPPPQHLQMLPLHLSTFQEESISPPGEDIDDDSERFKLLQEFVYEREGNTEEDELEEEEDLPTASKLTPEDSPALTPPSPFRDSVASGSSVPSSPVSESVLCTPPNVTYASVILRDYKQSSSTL

Regarding `CN(CC1OCCO1)C(=O)c1cn2c(nc3ccc(CNCC4CCOCC4)cc32)s1` [Example 39, N-(1,3-Dioxolan-2-ylmethyl)-N-methyl-6-({[(tetrahydro-2H-pyran-4-yl)methyl]amino}methyl)thiazolo[3,2-a]benzimidazole-2-carboxamide dihydrochloride], the IC50 on mGluR 1 came to 0.026 µM.
As for `CN(CC(C)(C)C)C(=O)c1cn2c(nc3ccc(CNCC4OCCO4)cc32)s1` [Example 12, 6-{[(1,3-Dioxolan-2-ylmethyl)amino]methyl}-N-methyl-N-neopentylthiazolo[3,2-a]benzimidazole-2-carboxamide dihydrochloride], the oral activity entry in the data set with STZ-loaded mice was “effective”. In addition, the “gene mutation inducing ability” value in data set [1] is listed as “negative”.
For `CN(CC(C)(C)C)C(=O)c1cn2c(nc3ccc(CNC4COC4)cc32)s1` [Example 6, N-Methyl-N-neopentyl-6-[(oxetan-3-ylamino)methyl]thiazolo[3,2-a]benzimidazole-2-carboxamide 1.5 Fumarate], the IC50 at mGluR 1 came to 0.002 µM.
On to `CC(C)(C)CNC(=O)c1cn2c(nc3ccc(CNC[C@H]4CCCO4)cc32)s1` [Example 24, (R)-N-Neopentyl-6-({[(tetrahydro-2-furyl)methyl]amino}methyl)thiazolo[3,2-a]benzimidazole-2-carboxamide dihydrochloride], for which the IC50 on mGluR 1 is 0.011 µM.
In the case of `CN(CC1OCCO1)C(=O)c1cn2c(nc3ccc(CNC[C@H]4CCCO4)cc32)s1` [Example 35, N-(1,3-Dioxolan-2-ylmethyl)-N-methyl-6-({[((R)-tetrahydro-2-furyl)methyl]amino}methyl)thiazolo[3,2-a]benzimidazole-2-carboxamide dihydrochloride], the IC50 on mGluR 1 turned out to be 0.012 µM.
Consider `CN(CC1OCCO1)C(=O)c1cn2c(nc3ccc(CN[C@@H]4CCOC4)cc32)s1` [Example 34, N-(1,3-Dioxolan-2-ylmethyl)-N-methyl-6-{[(R)-(tetrahydro-3-furyl)amino]methyl}thiazolo[3,2-a]benzimidazole-2-carboxamide dihydrochloride], for which the half-maximal inhibitory concentration (IC50) at mGluR 1 came out at 0.037 µM.
Regarding `CN(CC(C)(C)C)C(=O)c1cn2c(nc3ccc(CNC4CCOCC4)cc32)s1` [Example 15, N-Methyl-N-neopentyl-6-{[(tetrahydro-2H-pyran-4-yl)amino]methyl}thiazolo[3,2-a]benzimidazole-2-carboxamide dihydrochloride], on mGluR 1, the IC50 turned out to be 0.026 µM. In addition, in data set [2], the “efficacy upon the threshold value reduction in the operated side” value was “showed their efficacy”.
In turn, `CN(CC1OCCO1)C(=O)c1cn2c(nc3ccc(CNC4COC4)cc32)s1` [Example 31, N-(1,3-Dioxolan-2-ylmethyl)-N-methyl-6-[(oxetan-3-ylamino)methyl]thiazolo[3,2-a]benzimidazole-2-carboxamide] yielded an IC50 at mGluR 1 of 0.043 µM.
Regarding `CC(C)(C)CNC(=O)c1cn2c(nc3ccc(CN[C@@H]4CCOC4)cc32)s1` [Example 23, (R)-N-Neopentyl-6-{[(tetrahydro-3-furyl)amino]methyl}thiazolo[3,2-a]benzimidazole-2-carboxamide dihydrochloride], the IC50 on mGluR 1 amounted to 0.03 µM.
Regarding `CC(C)(C)CNC(=O)c1cn2c(nc3ccc(CNCC4OCCO4)cc32)s1` [Example 26, 6-{[(1,3-Dioxolan-2-ylmethyl)amino]methyl}-N-neopentylthiazolo[3,2-a]benzimidazole-2-carboxamide dihydrochloride], on mGluR 1, the half-maximal inhibitory concentration (IC50) worked out at 0.008 µM.
`CC(C)(C)CNC(=O)c1cn2c(nc3ccc(CNCC4CCOCC4)cc32)s1` [Example 28, N-Neopentyl-6-({[(tetrahydro-2H-pyran-4-yl)methyl]amino}methyl)thiazolo[3,2-a]benzimidazole-2-carboxamide dihydrochloride] had a concentration for half-maximal inhibition (IC50) on mGluR 1 of 0.048 µM. The “efficacy upon the threshold value reduction in the operated side” value in data set [2] is recorded as “showed their efficacy”.
For the compound `CN(CC(C)(C)C)C(=O)c1cn2c(nc3ccc(CNCC4CCOCC4)cc32)s1` [Example 17, N-Methyl-N-neopentyl-6-({[(tetrahydro-2H-pyran-4-yl)methyl]amino}methyl)thiazolo[3,2-a]benzimidazole-2-carboxamide dihydrochloride], the IC50 at mGluR 1 amounted to 0.006 µM. In data set [2], the “efficacy upon the threshold value reduction in the operated side” value was “showed their efficacy”.
In turn, `CN(CC(C)(C)C)C(=O)c1cn2c(nc3ccc(CNC[C@@H]4CCCO4)cc32)s1` [Example 11, N-Methyl-N-neopentyl-6-({[((S)-tetrahydro-2-furfuryl)methyl]amino}methyl)thiazolo[3,2-a]benzimidazole-2-carboxamide Dihydrochloride] displayed a half-inhibitory concentration (IC50) at mGluR 1 of 0.003 µM.
Regarding `CN(CC(C)(C)C)C(=O)c1cn2c(nc3ccc(CNCC4(C)COC4)cc32)s1` [Example 7, N-Methyl-6-({[(3-methyloxetan-3-yl)methyl]amino}methyl)-N-neopentylthiazolo[3,2-a]benzimidazole-2-carboxamide], the IC50 at mGluR 1 was 0.009 µM.
Same read-out and setting: in the case of `CN(CC1OCCO1)C(=O)c1cn2c(nc3ccc(CNCC4OCCO4)cc32)s1` [Example 37, N-(1,3-Dioxolan-2-ylmethyl)-6-{[(1,3-dioxolan-2-ylmethyl)amino]methyl}-N-methylthiazolo[3,2-a]benzimidazole-2-carboxamide dihydrochloride] it was 0.008 µM.
